Results published in article PMC4627794, “Non-Selective Cannabinoid Receptor Antagonists, Hinokiresinols Reduce Infiltration of Microglia/Macrophages into Ischemic Brain Lesions in Rat via Modulating 2-Arachidonolyglycerol-Induced Migration and Mitochondrial Activity” (PLoS ONE, 2015).

What was measured:
hCB2R (human CB2R) [1] = target: T1, hCB2R (human CB2R) (Homo sapiens, UniProt P34972); assay: competition radioligand binding, [3H]CP-55, […]
T1 construct: gene CNR2; full-length receptor stably expressed in CHO cells

[2] = target: T2, CB1R (U2 OS cells, reporter gene assay) (Homo sapiens, UniProt P21554); assay: SRE-luciferase reporter gene assay, agonism; type: cell-based; conditions: agonist mode
T2 construct: gene CNR1; receptor stably expressed in U2 OS cells

hCB2R (human CB2R) [3] = target: T1, hCB2R (human CB2R); assay: forskolin-stimulated cAMP accumulation, antagonism; type: cell-based
From the text: forskolin-stimulated cAMP accumulation, antagonism on hCB2R (human CB2R) | antagonism for CB1R and CB2R with IC50 values in micromolar ranges

[4] = target: T2, CB1R (U2 OS cells, reporter gene assay); assay: SRE-luciferase reporter gene assay, antagonism; type: cell-based
From the text: SRE-luciferase reporter gene assay, antagonism on CB1R (U2 OS cells, reporter gene assay) | antagonism for CB1R and CB2R with IC50 values in micromolar ranges

T2 sequence (P21554 whole entry): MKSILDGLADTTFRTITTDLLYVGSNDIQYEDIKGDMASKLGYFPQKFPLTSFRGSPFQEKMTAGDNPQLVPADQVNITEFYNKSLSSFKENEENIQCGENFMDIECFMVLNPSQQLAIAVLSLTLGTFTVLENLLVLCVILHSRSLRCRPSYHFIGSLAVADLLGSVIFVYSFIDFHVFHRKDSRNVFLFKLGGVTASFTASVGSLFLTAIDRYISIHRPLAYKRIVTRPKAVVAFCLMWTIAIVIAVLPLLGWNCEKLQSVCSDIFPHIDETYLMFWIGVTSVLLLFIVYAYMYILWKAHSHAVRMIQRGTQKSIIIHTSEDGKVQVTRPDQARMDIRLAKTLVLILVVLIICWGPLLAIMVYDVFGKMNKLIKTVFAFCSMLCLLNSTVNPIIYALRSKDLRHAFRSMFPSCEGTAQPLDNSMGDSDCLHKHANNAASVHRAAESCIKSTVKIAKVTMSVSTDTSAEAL
T1 sequence (P34972 whole entry): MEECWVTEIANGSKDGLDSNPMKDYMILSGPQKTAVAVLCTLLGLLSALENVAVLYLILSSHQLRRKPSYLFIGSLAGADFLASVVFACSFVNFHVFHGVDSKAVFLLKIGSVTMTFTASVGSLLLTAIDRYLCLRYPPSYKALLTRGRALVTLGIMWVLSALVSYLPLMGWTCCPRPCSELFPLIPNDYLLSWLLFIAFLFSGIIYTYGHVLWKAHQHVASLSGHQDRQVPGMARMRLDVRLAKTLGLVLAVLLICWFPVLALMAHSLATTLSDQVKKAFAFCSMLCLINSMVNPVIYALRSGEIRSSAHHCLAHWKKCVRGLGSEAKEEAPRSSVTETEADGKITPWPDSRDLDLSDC

Structure (SMILES)	Ki (hCB2R (human CB2R) [1]) [µM]	EC50 [2] [µM]	IC50 (hCB2R (human CB2R) [3]) [µM]	IC50 [4] [µM]
CN1CCCCC1Cn1cc(C(=O)c2cc([N+](=O)[O-])ccc2I)c2ccccc21 (centres unmarked) [AM-1241, reference compound]	0.0066			
CCCCCCC(C)(C)c1cc(O)c2c(c1)OC(C)(C)[C@@H]1CC=C(CO)C[C@@H]21 [Hu-210]		0.000199		
C=C[C@@H](/C=C\c1ccc(O)cc1)c1ccc(O)cc1 [cis-hinokiresinol]	12.2		72.5	11.2
C=C[C@@H](/C=C/c1ccc(O)cc1)c1ccc(O)cc1 [trans-hinokiresinol]	9.5		20.5	10.2
